Results reported in the supplement of paper PMC10627819.

Key:
Assay in all cases: fitness (endpoint OD595 vs no drug) (fraction); higher = more growth
B. subtilis 168 = tested on: B. subtilis 168
Procedure, shortened: (§1)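 Fitness expresses the optical density reached at the stationary-phase transition as a fraction of the robust mean of no-drug control wells. It is capped at 1. Measurements were OD595 every 30 min for 14 h at 37 °C after inoculation of 384-well plates at OD595 0.01 (30 µl, or 55 µl for S. pneumoniae), minus the first reading.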

S. aureus Newman = conditions: one replicate
Procedure, shortened: as §1

S. pneumoniae D39V = tested on: S. pneumoniae D39V
Procedure, shortened: as §1
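Note: OD595 on entry to stationary phase over no-drug wells; at most 1.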

O=C(O)[C@H]1/C(=C/CO)O[C@@H]2CC(=O)N21 [Clavulanic acid] + CCN(CC)CCOC(=O)c1ccc(N)cc1 [Procaine]
fitness
Conditions	partner 85.5 µg/mL	partner 171 µg/mL	partner 342 µg/mL
B. subtilis 168, first compound 1.5 µg/mL	0.876	0.92	0.902
B. subtilis 168, first compound 3 µg/mL	0.839	0.831	0.795
B. subtilis 168, first compound 6 µg/mL	0.746	0.739	0.672
S. aureus Newman, first compound 0.03125 µg/mL	0.948	0.929	0.963
S. aureus Newman, first compound 0.0625 µg/mL	0.982	≥ 1	≥ 1
S. aureus Newman, first compound 0.125 µg/mL	0.872	0.852	0.894
S. pneumoniae D39V, first compound 0.5 µg/mL	0.994	≥ 1	≥ 1
S. pneumoniae D39V, first compound 1 µg/mL	0.957	0.977	0.934
S. pneumoniae D39V, first compound 2 µg/mL	0.832	0.912	0.795

O=C(O)[C@H]1/C(=C/CO)O[C@@H]2CC(=O)N21 [Clavulanic acid] + CN1C2=CC=CC=C2N=C3C1=CC=CC3=O [Pyocyanin]
fitness
Conditions	partner 0.65 µg/mL	partner 1.25 µg/mL	partner 1.3 µg/mL	partner 2.5 µg/mL	partner 5 µg/mL
B. subtilis 168, first compound 1.5 µg/mL	–	0.91	–	0.837	0.678
B. subtilis 168, first compound 3 µg/mL	–	0.798	–	0.818	0.665
B. subtilis 168, first compound 6 µg/mL	–	0.748	–	0.719	0.604
S. aureus Newman, first compound 0.03125 µg/mL	–	0.884	–	0.898	0.723
S. aureus Newman, first compound 0.0625 µg/mL	–	0.934	–	0.87	0.785
S. aureus Newman, first compound 0.125 µg/mL	–	0.855	–	0.827	0.74
S. pneumoniae D39V, first compound 0.5 µg/mL	≥ 1	–	0.765	–	–
S. pneumoniae D39V, first compound 1 µg/mL	0.94	–	0.791	–	–
S. pneumoniae D39V, first compound 2 µg/mL	0.861	–	0.581	–	–

O=C(O)[C@H]1/C(=C/CO)O[C@@H]2CC(=O)N21 [Clavulanic acid] + CN(C)c1cc(NC(=O)CNC(C)(C)C)c(O)c2c1C[C@H]1C[C@H]3[C@H](N(C)C)C(O)=C(C(N)=O)C(=O)[C@@]3(O)C(O)=C1C2=O [Tigecycline]
Conditions	fitness
B. subtilis 168, first compound 1.5 µg/mL, partner 0.039 µg/mL	0.98
B. subtilis 168, first compound 1.5 µg/mL, partner 0.078 µg/mL	0.919
B. subtilis 168, first compound 1.5 µg/mL, partner 0.156 µg/mL	0.884
B. subtilis 168, first compound 3 µg/mL, partner 0.039 µg/mL	0.888
B. subtilis 168, first compound 3 µg/mL, partner 0.078 µg/mL	0.899
B. subtilis 168, first compound 3 µg/mL, partner 0.156 µg/mL	0.889
B. subtilis 168, first compound 6 µg/mL, partner 0.039 µg/mL	0.82
B. subtilis 168, first compound 6 µg/mL, partner 0.078 µg/mL	0.796
B. subtilis 168, first compound 6 µg/mL, partner 0.156 µg/mL	0.79
S. aureus Newman, first compound 0.03125 µg/mL, partner 0.039 µg/mL	0.952
S. aureus Newman, first compound 0.03125 µg/mL, partner 0.078 µg/mL	0.933
S. aureus Newman, first compound 0.03125 µg/mL, partner 0.156 µg/mL	0.96
S. aureus Newman, first compound 0.0625 µg/mL, partner 0.039 µg/mL	0.987
S. aureus Newman, first compound 0.0625 µg/mL, partner 0.078 µg/mL	1
S. aureus Newman, first compound 0.0625 µg/mL, partner 0.156 µg/mL	0.971
S. aureus Newman, first compound 0.125 µg/mL, partner 0.039 µg/mL	0.919
S. aureus Newman, first compound 0.125 µg/mL, partner 0.078 µg/mL	0.884
S. aureus Newman, first compound 0.125 µg/mL, partner 0.156 µg/mL	0.898
S. pneumoniae D39V, first compound 0.5 µg/mL, partner 0.325 µg/mL	≥ 1
S. pneumoniae D39V, first compound 0.5 µg/mL, partner 0.65 µg/mL	0.965
S. pneumoniae D39V, first compound 0.5 µg/mL, partner 1.3 µg/mL	0.931
S. pneumoniae D39V, first compound 0.5 µg/mL, partner 2.6 µg/mL	0.866
S. pneumoniae D39V, first compound 1 µg/mL, partner 0.325 µg/mL	0.908
S. pneumoniae D39V, first compound 1 µg/mL, partner 0.65 µg/mL	0.889
S. pneumoniae D39V, first compound 1 µg/mL, partner 1.3 µg/mL	0.877
S. pneumoniae D39V, first compound 1 µg/mL, partner 2.6 µg/mL	0.814
S. pneumoniae D39V, first compound 2 µg/mL, partner 0.325 µg/mL	0.717
S. pneumoniae D39V, first compound 2 µg/mL, partner 0.65 µg/mL	0.782
S. pneumoniae D39V, first compound 2 µg/mL, partner 1.3 µg/mL	0.815
S. pneumoniae D39V, first compound 2 µg/mL, partner 2.6 µg/mL	0.755

fitness, B. subtilis 168, one replicate
Conditions	first compound 1.5 µg/mL	first compound 3 µg/mL	first compound 6 µg/mL
partner 0.125 µg/mL	0.956	0.952	0.814
partner 0.25 µg/mL	0.863	0.928	0.821
partner 0.5 µg/mL	0.866	0.865	0.765
